Patent US11098041B2 (Merck Patent GmbH, priority 2014, dated 2021)

Tests used:
[1] = biological target: full-length human BTK (Homo sapiens (Human), UniProt Q06187); experiment: Assay A: microfluidic off-chip mobility shift assay against BTK enzyme; format: biochemical
[2] = biological target: BTK C481S (His-TEV-hsBTK(328-659)(C481S)) (Homo sapiens (Human), UniProt Q06187, C481S); experiment: Assay B: microfluidic off-chip mobility shift assay against BTK C481S enzyme; format: biochemical; settings: BTK C481S mutant
Chain of BTK C481S (His-TEV-hsBTK(328-659)(C481S)) (Q06187 328-659 C481S): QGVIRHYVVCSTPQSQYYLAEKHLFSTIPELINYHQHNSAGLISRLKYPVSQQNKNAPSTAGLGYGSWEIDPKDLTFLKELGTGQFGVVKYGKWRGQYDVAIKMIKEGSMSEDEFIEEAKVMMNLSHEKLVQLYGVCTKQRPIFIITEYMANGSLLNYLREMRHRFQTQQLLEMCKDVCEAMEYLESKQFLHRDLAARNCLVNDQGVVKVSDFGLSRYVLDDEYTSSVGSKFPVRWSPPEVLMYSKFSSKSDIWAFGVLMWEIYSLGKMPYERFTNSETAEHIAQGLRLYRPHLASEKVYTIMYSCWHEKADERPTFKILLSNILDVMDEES
Summary of the method: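 Substrate-to-phosphopeptide conversion quantified by microfluidic mobility shift with laser-induced fluorescence; IC50 and efficacy from log[inhibitor] vs. % activity.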

[3] = test system: anti-IgM-induced expression of CD69 on CD19 positive cells (B cells) in human PBMCs; experiment: Assay C: PBMC IC50 assay (anti-IgM-induced CD69 expression); format: cell-based; settings: anti-IgM stimulation
Experimental: Btk is critical for mediating the signalling of B cell antigen receptor (BCR) after anti-IgM stimulation. Based on this principle, a functional cell-based assay was established to determine the potency of compounds at inhibiting anti-IgM-induced expression of CD69, a downstream BCR signaling event, in freshly isolated human peripheral blood mononuclear cells (PBMCs). In the assay, a 90 μl PBMC suspension containing 2.5×10^5 cells was pre-treated with 10 μl of test compound at various concentrations for an hour, and then incubated overnight (approximately 16-18 hours) with 5 μl 420 μg/ml affiniPure F(ab′)2 fragment goat anti-human IgM Fc fragment per well (Dianova, Cat. No.: 109-006-129). After the incubation, the cells were washed and immunostained with an APC-labeled mouse anti-human CD69 (BD Biosciences; clone: FN50), a PerCP-Cy5.5 labelled mouse anti-human CD19 (BD Biosciences; clone: SJ25C1) and a FITC-labelled mouse anti-human CD3 (BD Biosciences; clone: HIT3a), and fixed for flow cytometric analysis of CD69 expression on CD19 positive cells (B cells). The percentage of CD69 expressing CD19 positive cells was plotted against the concentrations of test compounds to obtain a concentration response curve, and calculate an IC50 value as a measure of the potency of test compounds in the assay.

Chain of full-length human BTK (Q06187 whole entry): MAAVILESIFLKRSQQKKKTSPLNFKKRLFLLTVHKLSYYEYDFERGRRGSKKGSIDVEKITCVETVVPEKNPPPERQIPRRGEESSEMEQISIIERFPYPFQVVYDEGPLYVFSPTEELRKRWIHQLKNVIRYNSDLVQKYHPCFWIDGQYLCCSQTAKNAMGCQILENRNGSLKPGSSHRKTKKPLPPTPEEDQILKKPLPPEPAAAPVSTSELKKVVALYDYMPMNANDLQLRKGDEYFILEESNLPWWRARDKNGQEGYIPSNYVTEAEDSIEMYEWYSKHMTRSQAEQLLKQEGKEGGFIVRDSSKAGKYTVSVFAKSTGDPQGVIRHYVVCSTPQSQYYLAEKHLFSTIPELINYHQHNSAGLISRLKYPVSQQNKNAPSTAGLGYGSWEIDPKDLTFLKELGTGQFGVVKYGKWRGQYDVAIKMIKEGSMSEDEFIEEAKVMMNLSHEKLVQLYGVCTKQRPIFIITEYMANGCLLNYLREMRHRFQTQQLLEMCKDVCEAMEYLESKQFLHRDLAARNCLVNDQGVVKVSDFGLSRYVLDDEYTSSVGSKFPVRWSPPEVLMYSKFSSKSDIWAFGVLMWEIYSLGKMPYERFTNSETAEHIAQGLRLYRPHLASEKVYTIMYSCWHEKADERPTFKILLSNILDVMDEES

Structure (SMILES) | IC50 [1] [µM] | IC50 [2] [µM] | IC50 [3] [µM]
Cn1cc(-c2nc3c(-c4ccc(CN5Cc6cc(C7CC7)sc6C5=O)c(F)c4)ccnc3[nH]2)cn1 [Example 93, 2-Cyclopropyl-5-([2-fluoro-4-[2-(1-methyl-1H-pyrazol-4-yl)-3H-imidazo[4,5-b]pyridin-7-yl]phenyl]methyl)-4H,5H,6H-thieno[2,3-c]pyrrol-6-one] | < 0.1 | < 0.1 | 0.1 to 1
Cn1cc(-c2nc3c(-c4ccc(CNC(=O)CCCC(C)(C)C)c(F)c4)ccnc3[nH]2)cn1 [Example 14, 5,5-Dimethyl-hexanoic acid 2-fluoro-4-[2-(1-methyl-1H-pyrazol-4-yl)-3H-imidazo[4,5-b]pyridin-7-yl]-benzylamide] | < 0.1 | < 0.1 | 1 to 5
CN(C)c1ccc(-c2nc3c(-c4ccc(CNC(=O)c5noc(C(C)(C)C)n5)c(F)c4)ccnc3[nH]2)cc1 [Example 145, 5-(tert-butyl)-N-(4-(2-(4-(dimethylamino)phenyl)-3H-imidazo[4,5-b]pyridin-7-yl)-2-fluorobenzyl)-1,2,4-oxadiazole-3-carboxamide] | < 0.1 | < 0.1 | < 0.1
CN1CC=C(c2nc3c(-c4ccc(CNC(=O)c5nnc(C(C)(C)C)o5)c(F)c4)ccnc3[nH]2)CC1 [Example 139, 5-tert-Butyl-[1,3,4]oxadiazole-2-carboxylic acid 2-fluoro-4-[2-(1-methyl-1,2,3,6-tetrahydro-pyridin-4-yl)-3H-imidazo[4,5-b]pyridin-7-yl]-benzylamide] | < 0.1 | < 0.1 | 1 to 5
CC(C)(C)c1nc(C(=O)NCc2ccc(-c3ccnc4[nH]c(-c5ccc(C(O)CO)cn5)nc34)cc2F)no1 (centres unmarked) [Example 76, 5-tert-Butyl-N-[(4-[2-[5-(1,2-dihydroxyethyl)pyridin-2-yl]-3H-imidazo[4,5-b]pyridin-7-yl]-2-fluorophenyl)methyl]-1,2,4-oxadiazole-3-carboxamide] | < 0.1 | < 0.1 | < 0.1
COc1ccc(-c2nc3c(-c4ccc(CNC(=O)c5ccc(C(C)(C)C)cc5)c(F)c4)ccnc3[nH]2)cc1 [Example 62, 4-tert-Butyl-N-([2-fluoro-4-[2-(4-methoxyphenyl)-3H-imidazo[4,5-b]pyridin-7-yl]phenyl]methyl) benzamide] | < 0.1 | < 0.1 | 0.1 to 1
Cn1cc(-c2nc3c(-c4ccc(CNC(=O)c5noc(C(C)(C)N)n5)c(F)c4)ccnc3[nH]2)cn1 [Example 58, 5-(2-Aminopropan-2-yl)-N-([2-fluoro-4-[2-(1-methyl-1H-pyrazol-4-yl)-3H-imidazo[4,5-b]pyridin-7-yl]phenyl]methyl)-1,2,4-oxadiazole-3-carboxamide] | < 0.1 | < 0.1 | 1 to 5
CN(C)c1ccc(-c2nc3c(-c4ccc(CNC(=O)N5CC(OC(C)(C)C)C5)c(F)c4)ccnc3[nH]2)nc1 [Example 90, 3-(tert-Butoxy)-N-[(4-[2-[5-(dimethylamino)pyridin-2-yl]-3H-imidazo[4,5-b]pyridin-7-yl]-2-fluorophenyl)methyl]azetidine-1-carboxamide] | < 0.1 | 0.1 to 1 | 1 to 5
CC(C)(C)c1nc(C(=O)NCc2ccc(-c3ccnc4[nH]c(-c5ccc(N6CCCC6)cn5)nc34)cc2F)no1 [Example 80, 5-tert-Butyl-N-[(2-fluoro-4-[2-[5-(pyrrolidin-1-yl)pyridin-2-yl]-3H-imidazo[4,5-b]pyridin-7-yl]phenyl)methyl]-1,2,4-oxadiazole-3-carboxamide] | < 0.1 | < 0.1 | 0.1 to 1
CN1CC=C(c2ccc(-c3nc4c(-c5ccc(CNC(=O)c6noc(C(C)(C)C)n6)c(F)c5)ccnc4[nH]3)nc2)CC1 [Example 85, 5-tert-Butyl-N-[(2-fluoro-4-[2-[5-(1-methyl-1,2,3,6-tetrahydropyridin-4-yl)pyridin-2-yl]-3H-imidazo [4,5-b]pyridin-7-yl]phenyl)methyl]-1,2,4-oxadiazole-3-carboxamide; trifluoroacetic acid] | < 0.1 |  | 0.1 to 1
COc1ccc(-c2nc3c(-c4ccc(CNC(=O)c5nc(C(C)(C)C)no5)c(F)c4)ccnc3[nH]2)nc1 [Example 161, 3-tert-butyl-N-([2-fluoro-4-[2-(5-methoxypyridin-2-yl)-3H-imidazo[4,5-b]pyridin-7-yl]phenyl]methyl)-1,2,4-oxadiazole-5-carboxamide] | < 0.1 |  | < 0.1
Cn1cc(-c2nc3c(-c4cnc(CNC(=O)c5noc(C(C)(C)C)n5)c(F)c4)ccnc3[nH]2)cn1 [Example 12, 5-tert-Butyl-[1,2,4]oxadiazole-3-carboxylic acid {3-fluoro-5-[2-(1-methyl-1H-pyrazol-4-yl)-3H-imidazo[4,5-b]pyridin-7-yl]-pyridin-2-ylmethyl}-amide] | < 0.1 |  | 0.1 to 1
CC(C)(C)c1noc(C(=O)NCc2ccc(-c3ccnc4[nH]c(-c5ccc(N6CCC(F)(F)CC6)cn5)nc34)cc2F)n1 [Example 164, 3-tert-butyl-N-[(4-[2-[5-(4,4-difluoropiperidin-1-yl)pyridin-2-yl]-3H-imidazo[4,5-b]pyridin-7-yl]-2-fluorophenyl)methyl]-1,2,4-oxadiazole-5-carboxamide] | < 0.1 |  | 0.1 to 1
CC(C)(C)c1noc(C(=O)NCc2ccc(-c3ccnc4[nH]c(-c5ccc(CN6CCOCC6)cn5)nc34)cc2F)n1 [Example 162, 3-tert-butyl-N-[(2-fluoro-4-[2-[5-(morpholin-4-ylmethyl)pyridin-2-yl]-3H-imidazo[4,5-b]pyridin-7-yl]phenyl)methyl]-1,2,4-oxadiazole-5-carboxamide] | < 0.1 |  | < 0.1
C=CC(=O)Nc1ccccc1-c1nc2nccc(-c3ccc(CNC(=O)c4nc(C(C)(C)C)no4)c(F)c3)c2[nH]1 [Example 160, 3-tert-butyl-N-[(2-fluoro-4-[2-[2-(prop-2-enamido)phenyl]-3H-imidazo[4,5-b]pyridin-7-yl]phenyl)methyl]-1,2,4-oxadiazole-5-carboxamide] | < 0.1 |  | < 0.1
Cn1cc(-c2nc3c(-c4ccc(CNC(=O)c5noc(C6CC6)n5)c(F)c4)ccnc3[nH]2)cn1 [Example 59, 5-Cyclopropyl-N-([2-fluoro-4-[2-(1-methyl-1H-pyrazol-4-yl)-3H-imidazo[4,5-b]pyridin-7-yl]phenyl]methyl)-1,2,4-oxadiazole-3-carboxamide] | < 0.1 |  | 0.1 to 1
Cn1cc(-c2nc3c(-c4cccc(N5CCc6cc(C7CC7)ccc6C5=O)c4CO)ccnc3[nH]2)cn1 [Example 7, 6-cyclopropyl-2-(2-(hydroxymethyl)-3-(2-(1-methyl-1H-pyrazol-4-yl)-3H-imidazo[4,5-b]pyridin-7-yl)phenyl)-3,4-dihydroisoquinolin-1(2H)-one] | < 0.1 |  | 1 to 5
Cn1cc(-c2nc3c(-c4ccc(C5(NC(=O)c6noc(C(C)(C)C)n6)CC5)c(F)c4)ccnc3[nH]2)cn1 [Example 51, 5-tert-Butyl-N-(1-[2-fluoro-4-[2-(1-methyl-1H-pyrazol-4-yl)-3H-imidazo[4,5-b]pyridin-7-yl]phenyl]cyclopropyl)-1,2,4-oxadiazole-3-carboxamide] | < 0.1 |  | < 0.1
CC(C)(C)c1nc(C(=O)NCc2ccc(-c3ccnc4[nH]c(C5=CCNCC5)nc34)cc2F)no1 [Example 134, 5-tert-Butyl-[1,2,4]oxadiazole-3-carboxylic acid 2-fluoro-4-[2-(1,2,3,6-tetrahydro-pyridin-4-yl)-3H-imidazo[4,5-b]pyridin-7-yl]-benzylamide] | < 0.1 |  | 0.1 to 1
COc1cccc(-c2nc3c(-c4ccc(CNC(=O)c5ccc(C6CC6)cc5)c(F)c4)ccnc3[nH]2)c1 [Example 64, 4-Cyclopropyl-N-([2-fluoro-4-[2-(3-methoxyphenyl)-3H-imidazo[4,5-b]pyridin-7-yl]phenyl]methyl) benzamide] | < 0.1 |  | 0.1 to 1
O=C(c1ccc(-c2nc3c(-c4cccc(N5CCOc6cc(C7CC7)cc(F)c6C5=O)c4CO)ccnc3[nH]2)cc1)N1CCOCC1 [Example 1, 8-Cyclopropyl-6-fluoro-4-[2-(hydroxymethyl)-3-(2-[4-[(morpholin-4-yl)carbonyl]phenyl]-3H-imidazo [4,5-b]pyridin-7-yl)phenyl]-2,3,4,5-tetrahydro-1,4-benzoxazepin-5-one] | < 0.1 |  | 1 to 5
C=CC(=O)Nc1cccc(-c2nc3nccc(-c4ccc(CNC(=O)c5nc(C(C)(C)C)no5)c(F)c4)c3[nH]2)c1 [Example 163, 3-tert-butyl-N-[(2-fluoro-4-[2-[3-(prop-2-enamido)phenyl]-3H-imidazo[4,5-b]pyridin-7-yl]phenyl)methyl]-1,2,4-oxadiazole-5-carboxamide] | < 0.1 |  | < 0.1
